Laboratory results as given in PMC5423775, “Structure of a AAA+ unfoldase in the process of unfolding substrate” (eLife, 2017).

Legend:
[1] = target: T1, ΔN-VAT (Thermoplasma acidophilum, UniProt O05209); test: cryo-EM structure, […] Å; format: binding; details: 5 mM ATPγS, 50 mM HEPES pH 7.5, 100 mM NaCl; all twelve NBD1 and NBD2 nucleotide sites; six-fold symmetric stacked-ring state
T1 construct: N-terminal regulatory domain removed (Methods: 181 residues deleted; b5 says first 182), NBD1 + NBD2; N-terminal His6 tag with TEV site, pProEx vector; homohexamer
T1 sequence (O05209 182-745, stated change not applied): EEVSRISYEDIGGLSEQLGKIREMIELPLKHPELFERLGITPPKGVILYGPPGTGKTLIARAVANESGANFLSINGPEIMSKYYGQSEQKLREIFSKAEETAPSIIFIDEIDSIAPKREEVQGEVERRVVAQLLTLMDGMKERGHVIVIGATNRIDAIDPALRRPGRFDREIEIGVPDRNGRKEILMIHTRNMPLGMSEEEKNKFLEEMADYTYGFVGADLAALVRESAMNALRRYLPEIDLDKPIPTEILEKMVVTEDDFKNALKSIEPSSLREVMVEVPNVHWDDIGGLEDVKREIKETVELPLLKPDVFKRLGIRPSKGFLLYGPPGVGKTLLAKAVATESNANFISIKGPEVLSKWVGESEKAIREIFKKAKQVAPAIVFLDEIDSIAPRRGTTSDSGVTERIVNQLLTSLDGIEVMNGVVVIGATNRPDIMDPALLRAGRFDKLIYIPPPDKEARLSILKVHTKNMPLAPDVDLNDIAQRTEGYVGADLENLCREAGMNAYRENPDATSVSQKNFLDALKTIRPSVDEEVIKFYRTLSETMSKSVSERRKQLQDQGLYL

[2] = target: ΔN-VAT (Thermoplasma acidophilum VAT with the regulatory N-terminal domain removed) (Thermoplasma acidophilum) (UniProt O05209); test: cryo-EM structure; purified ΔN-VAT at ~20 mg/mL, 50 mM HEPES pH 7.5, 100 mM NaCl, 5 mM ATPγS, 0.05% IGEPAL CA-630; six-fold symmetric stacked-ring class (~85% of particle images), C6 symmetry applied, 3.9 Å

stoichiometry N [2] | Compound | cryo-EM structure, 3.9 Å [1]
– | Nc1ncnc2c1ncn2[C@@H]1O[C@H](COP(=O)(O)OP(=O)(O)OP(O)(O)=S)[C@@H](O)[C@H]1O [ATPγS] | Density corresponding to ATPγS is visible in all twelve catalytic sites.
6 | ΔN-VAT (Thermoplasma acidophilum VAT with the regulatory N-terminal domain removed) (from UniProt O05209 182-745) (enzyme) | –
